The test system of this experiment is DOHH2 cells. Nature of the experiment: Cell proliferation assay (MTS), DOHH2 cells, 120 h. Type of experiment: cell-based. The text has this:
Cell Proliferation Assays
MTS testing kit was purchased from Promega. The RPMI-1640, Fetal bovine serum and Penicillin-Streptomycin were purchased from Gibco. Dimethyl sulfoxide (DMSO) was purchased from Sigma.
To investigate whether a compound is able to inhibit the activity of BCL-2 in cells, a mechanism-based assay using DOHH2 (DSMZ No.® ACC 47) and RS4;11 (ATCC® CRL-1873™) cell was developed. In this assay, inhibition of Bcl-2 was detected by the inhibition of DOHH2 cells proliferation. DOHH2 cells were cultured in culture flasks to 40-80% confluence in RPMI-1640 plus 10% fetal bovine serum. Cells were collected and plated onto 96-well plates at desired cell density (5000 cells/well). Plates were incubated overnight at 37° C., with 5% CO2 to adhere. Compounds were added to the plates, and the final compound concentrations were 10000, 3333, 1111, […], 124, 41, 14, 4.6 and 1.5 nM. Plates plated with DOHH2 or RS4;11 cells were placed at 37° C., with 5% CO2 for 120 h (DOHH2) or 72 h (RS4;11) respectively. 20 μl MTS/100 μl medium mixture solution were added to each well and incubate the plates for exactly 2 hours. The reaction was stopped by adding 25 μl 10% SDS per well. Measure absorbance at 490 nm and 650 nm (reference wavelength). IC50 was calculated using GraphPad Prism 5.0.
Select compounds prepared as described above were assayed according to the biological procedures described herein.

Read-outs that look alike come from different tables or passages of the source.

Consider `CC1(C)CCC(CN2CCN(c3ccc(C(=O)NS(=O)(=O)c4cc5c(c([N+](=O)[O-])c4)N[C@@H](C4CCC(O)CC4)CO5)c(Oc4cnc5[nH]ccc5c4)c3)CC2)=C(c2ccc(Cl)cc2)C1` (stereo partly drawn) [Example 2-245B, (S)-2-((1H-pyrrolo[2,3-b]pyridin-5-yl)oxy)-4-(4-((4′-chloro-5,5-dimethyl-3,4,5,6-tetra-hydro-[1,1′-biphenyl]-2-yl)methyl)piperazin-1-yl)-N-((3-(4-hydroxycyclohexyl)-5-nitro-3,4-dihydro-2H-benzo[b][1,4]oxazin-7-yl)sulfonyl)benzamide], for which the IC50 is 0.001 µM.
`C[C@H]1COCCN1C[C@H]1COc2cc(S(=O)(=O)NC(=O)c3ccc(N4CCN(CC5=C(c6ccc(Cl)cc6)CC(C)(C)CC5)CC4)cc3Oc3cnc4[nH]ccc4c3)cc([N+](=O)[O-])c2N1` [Example 2-85, 2-((1H-pyrrolo[2,3-b]pyridin-5-yl)oxy)-4-(4-((4′-chloro-5,5-dimethyl-3,4,5,6-tetra-hydro-[1,1′-biphenyl]-2-yl)methyl)piperazin-1-yl)-N-(((S)-3-(((S)-3-methylmorpholino)meth-yl)-5-nitro-3,4-dihydro-2H-benzo[b][1,4]oxazin-7-yl)sulfonyl)benzamide]: half-maximal inhibition (Homo sapiens, DOHH-2, 120 h) (IC50) required 0.434 µM.
As to `CN1CCN(C[C@@H]2COc3cc(S(=O)(=O)NC(=O)c4ccc(N5CCN(CC6=C(c7ccc(Cl)cc7)CC(C)(C)CC6)CC5)cc4Oc4cnc5[nH]ccc5c4)cc([N+](=O)[O-])c3N2)CC1` [Example 2-4, (R)-2-((1H-pyrrolo[2,3-b]pyridin-5-yl)oxy)-4-(4-((4′-chloro-5,5-dimethyl-3,4,5,6-tetra-hydro-[1,1′-biphenyl]-2-yl)methyl)piperazin-1-yl)-N-((3-((4-methylpiperazin-1-yl)meth-yl)-5-nitro-3,4-dihydro-2H-benzo[b][1,4]oxazin-7-yl)sulfonyl)benzamide], where the note is “Homo sapiens, DOHH-2, 120 h”, the IC50 came out at 0.139 µM.
For the compound `CCS(=O)(=O)NC[C@@H]1COc2cc(S(=O)(=O)NC(=O)c3ccc(N4CCN(CC5=C(c6ccc(Cl)cc6)CC(C)(C)CC5)CC4)cc3Oc3cnc4[nH]ccc4c3)cc([N+](=O)[O-])c2N1` [Example 2-137, (R)-2-((1H-pyrrolo[2,3-b]pyridin-5-yl)oxy)-4-(4-((4′-chloro-5,5-dimethyl-3,4,5,6-tetra-hydro-[1,1′-biphenyl]-2-yl)methyl)piperazin-1-yl)-N-((3-(ethylsulfonamidomethyl)-5-nitro-3,4-dihydro-2H-benzo[b][1,4]oxazin-7-yl)sulfonyl)benzamide], for the setting “Homo sapiens, DOHH-2, 120 h”, the IC50 was 0.139 µM.
Still for that read-out and setting: the same measure for `CC1(C)CCC(CN2CCN(c3ccc(C(=O)NS(=O)(=O)c4cc5c(c([N+](=O)[O-])c4)N[C@@H](c4ccc(F)cc4)CO5)c(Oc4cnc5[nH]ccc5c4)c3)CC2)=C(c2ccc(Cl)cc2)C1` [Example 2-173, (S)-2-((1H-pyrrolo[2,3-b]pyridin-5-yl)oxy)-4-(4-((4′-chloro-5,5-dimethyl-3,4,5,6-tetra-hydro-[1,1′-biphenyl]-2-yl)methyl)piperazin-1-yl)-N-((3-(4-fluorophenyl)-5-nitro-3,4-dihydro-2H-benzo[b][1,4]oxazin-7-yl)sulfo-nyl)benzamide]: 0.024 µM; for `CC1(C)CCC(CN2CCN(c3ccc(C(=O)NS(=O)(=O)c4cc5c(c([N+](=O)[O-])c4)N[C@@H](C4CCNCC4)CO5)c(Oc4cnc5[nH]ccc5c4)c3)CC2)=C(c2ccc(Cl)cc2)C1` [Example 2-228, (S)-2-((1H-pyrrolo[2,3-b]pyridin-5-yl)oxy)-4-(4-((4′-chloro-5,5-dimethyl-3,4,5,6-tetra-hydro-[1,1′-biphenyl]-2-yl)methyl)piperazin-1-yl)-N-((5-nitro-3-(piperidin-4-yl)-3,4-dihydro-2H-benzo[b][1,4]oxazin-7-yl)sulfonyl)benzamide]: 0.048 µM.
On the same count and under the same terms, the same measure for `CC1(C)CCC(CN2CCN(c3ccc(C(=O)NS(=O)(=O)c4cc([N+](=O)[O-])c5nc(CN6CCOCC6)[nH]c5c4)c(Oc4cnc5[nH]ccc5c4)c3)CC2)=C(c2ccc(Cl)cc2)C1` [Example 1-27, 2-((1H-pyrrolo[2,3-b]pyridin-5-yl)oxy)-4-(4-((4′-chloro-5,5-dimethyl-3,4,5,6-tetrahydro-[1,1′-biphenyl]-2-yl)methyl)piperazin-1-yl)-N-((2-(morpholinomethyl)-4-nitro-1H-benzo[d]imidazol-6-yl)sulfonyl)benzamide]: 0.051 µM; for `CN=S1(=O)CCN(C[C@H]2COc3cc(S(=O)(=O)NC(=O)c4ccc(N5CCN(CC6=C(c7ccc(Cl)cc7)CC(C)(C)CC6)CC5)cc4Oc4cnc5[nH]ccc5c4)cc([N+](=O)[O-])c3N2)CC1` [Example 2-122, (S)-2-((1H-pyrrolo[2,3-b]pyridin-5-yl)oxy)-4-(4-((4′-chloro-5,5-dimethyl-3,4,5,6-tetra-hydro-[1,1′-biphenyl]-2-yl)methyl)piperazin-1-yl)-N-((3-((1-(methylimino)-1-oxido-1λ^6-thiomorpholino)methyl)-5-nitro-3,4-di-hydro-2H-benzo[b][1,4]oxazin-7-yl)sulfonyl)benzamide]: 0.66 µM.
As to `CC1(C)CCC(CN2CCN(c3ccc(C(=O)NS(=O)(=O)c4cc5c(c([N+](=O)[O-])c4)N[C@@H](CCOC(=O)N4CCOCC4)CO5)c(Oc4cnc5[nH]ccc5c4)c3)CC2)=C(c2ccc(Cl)cc2)C1` [Example 2-135, (S)-2-(7-(N-(2-((1H-pyrrolo[2,3-b]pyridin-5-yl)oxy)-4-(4-((4′-chloro-5,5-dimethyl-3,4,5,6-tetrahydro-[1,1′-biphenyl]-2-yl)methyl)piperazin-1-yl)benzoyl)sulfamoyl)-5-nitro-3,4-dihydro-2H-benzo[b][1,4]oxazin-3-yl) ethyl morpholine-4-carboxylate], where the note is “Homo sapiens, DOHH-2, 120 h”, it took 0.186 µM to reach half-maximal inhibition (IC50).
Same read-out and setting: the same measure for `CC1(C)CCC(CN2CCN(c3ccc(C(=O)NS(=O)(=O)c4cc5c(c([N+](=O)[O-])c4)N[C@H](c4ccc(C#N)cc4)CO5)c(Oc4cnc5[nH]ccc5c4)c3)CC2)=C(c2ccc(Cl)cc2)C1` [Example 2-170, (R)-2-((1H-pyrrolo[2,3-b]pyridin-5-yl)oxy)-4-(4-((4′-chloro-5,5-dimethyl-3,4,5,6-tetra-hydro-[1,1′-biphenyl]-2-yl)methyl)piperazin-1-yl)-N-((3-(4-cyanophenyl)-5-nitro-3,4-dihydro-2H-benzo[b][1,4]oxazin-7-yl)sulfo-nyl)benzamide]: 0.464 µM; for `CC1(C)CCC(CN2CCN(c3ccc(C(=O)NS(=O)(=O)c4cc5c(c([N+](=O)[O-])c4)N[C@H](CN4CCOC4=O)CO5)c(Oc4cnc5[nH]ccc5c4)c3)CC2)=C(c2ccc(Cl)cc2)C1` [Example 2-146, (R)-2-((1H-pyrrolo[2,3-b]pyridin-5-yl)oxy)-4-(4-((4′-chloro-5,5-dimethyl-3,4,5,6-tetra-hydro-[1,1′-biphenyl]-2-yl)methyl)piperazin-1-yl)-N-((5-nitro-3-((2-oxooxazolidin-3-yl)methyl)-3,4-dihydro-2H-benzo[b][1,4]oxazin-7-yl)sulfonyl)benzamide]: 0.16 µM; for `CC1(C)CCC(CN2CCN(c3ccc(C(=O)NS(=O)(=O)c4cc5c(c([N+](=O)[O-])c4)N[C@H](CCNC(=O)N4CCOCC4)CO5)c(Oc4cnc5[nH]ccc5c4)c3)CC2)=C(c2ccc(Cl)cc2)C1` [Example 2-59]: 0.73 µM.
As to `CC1(C)CCC(CN2CCN(c3ccc(C(=O)NS(=O)(=O)c4cc5c(c([N+](=O)[O-])c4)N[C@H](CCO)C5)c(Oc4cnc5[nH]ccc5c4)c3)CC2)=C(c2ccc(Cl)cc2)C1` [Example 1-20, (S)-2-((1H-pyrrolo[2,3-b]pyridin-5-yl)oxy)-4-(4-((4′-chloro-5,5-dimethyl-3,4,5,6-tetra-hydro-[1,1′-biphenyl]-2-yl)methyl)piperazin-1-yl)-N-((2-(2-hydroxyethyl)-7-nitro-indolin-5-yl)sulfonyl)benzamide], under “Homo sapiens, DOHH-2, 120 h”, the IC50 turned out to be 0.17 µM.
On the same count and under the same terms, the same measure for `CC1(C)CCC(CN2CCN(c3ccc(C(=O)NS(=O)(=O)c4cc5c(c([N+](=O)[O-])c4)N[C@@H](c4ccccn4)CO5)c(Oc4cnc5[nH]ccc5c4)c3)CC2)=C(c2ccc(Cl)cc2)C1` [Example 2-171, (S)-2-((1H-pyrrolo[2,3-b]pyridin-5-yl)oxy)-4-(4-((4′-chloro-5,5-dimethyl-3,4,5,6-tetra-hydro-[1,1′biphenyl]-2-yl)methyl)piperazin-1-yl)-N-((5-nitro-3-(pyridin-2-yl)-3,4-di-hydro-2H-benzo[b][1,4]oxazin-7-yl)sulfonyl) benzamide]: 0.302 µM; for `CC1(C)CCC(CN2CCN(c3ccc(C(=O)NS(=O)(=O)c4cc5c(c([N+](=O)[O-])c4)N[C@@H](C4CC4)CO5)c(-n4ncc5nc6[nH]ccc6cc54)c3)CC2)=C(c2ccc(Cl)cc2)C1` [Example 6-2, (S)-4-(4-((4′-chloro-5,5-dimethyl-3,4,5,6-tetrahydro-[1,1′-biphenyl]-2-yl)methyl)piperazin-1-yl)-N-((3-cyclopropyl-5-nitro-3,4-dihydro-2H-benzo[b][1,4]oxazin-7-yl)sulfonyl)-2-(pyrazolo[4,3-b]pyrrolo[3,2-e]pyridin-1(5H)-yl)benzamide]: 0.264 µM.

What is called IC50 is the concentration needed to halve the response being measured. A low value points to inhibition by little substance.

The record behind these values is patent publication US11091478B2 (Fochon Pharmaceuticals, Ltd., priority 2017, dated 2021).
